Source: ChEMBL document CHEMBL1123372, “6,7-Dichloro-1-(3,4,5-trimethoxybenzyl)-1,2,3,4-tetrahydroisoquinoline . A structurally novel beta-adrenergic receptor blocking agent” (J Med Chem, 1986)

Key:
Format in all cases: physicochemical
[1] = Compound was evaluated for distribution coefficient; conditions: octanol/water
[2] = Compound was evaluated for pKa by titration of the compounds in 1:2 methyl alcohol and water; conditions: read-out: pKa app
[3] = Partition coefficient (logP); conditions: octanol/water
[4] = Compound was evaluated for pKa by titration of the compounds in 1:2 methyl alcohol and water.; conditions: read-out: pKa app

| pKa [4] | Compound | logD [1] | pKa [2] | logP [3] |
| --- | --- | --- | --- | --- |
| – | CC(C)NCC(O)c1ccc(Cl)c(Cl)c1 (stereo unspecified) [DICHLOROISOPROTERENOL] | 1.26 | 8.7 | 2.55 |
| 7.6 | COc1cc(C[C@@H]2NCCc3cc(O)c(O)cc32)cc(OC)c1OC [TRETOQUINOL] | 1.79 | – | 2.23 |
